Results on 27 molecules are retold here after US11117892B2, “Pyrrolo-pyridine derivative compound, method for preparing same, and pharmaceutical composition containing same as active ingredient for prevention or treatment of protein kinase-related diseases” (DAEGU-GYEONGBUK MEDICAL INNOVATION FOUNDATION, priority 2017, dated 2021).

The structures appear in SMILES notation.

One experiment deals with Drosophila over-expressing minibrain specifically in wings. Put plainly: wing vein developmental abnormality, Drosophila over-expressing minibrain specifically in wings. It is filed as in vivo. As to conditions: medium supplemented with compound at 10 μM. The text has this:
To confirm the DYRK1A inhibitory effect of the compound according to the present invention in vivo, wings of the Drosophila model over-expressing minibrain gene specifically in wings were observed. First, in order to produce Drosophila over-expressing minibrain specifically in wings, the UAS-Minibrain transformed Drosophila was mated with the wing specific promoter MS1096-Gal4 transformed Drosophila, resulting in the production of F1 generation. Next, the effect of improving wing defects was confirmed to verify the DYRK1A inhibitory effect of the compound according to the present invention using the Drosophila DYRK1A/minibrain inhibitor discovery model. A medium supplemented with the compound at the concentration of 10 μM was prepared, in which embryos of Drosophila over-expressing minibrain specifically in wings were raised, followed by investigation of wing phenotype.
On to `CNc1cc(Nc2ccc(N3CCN(C)CC3)cc2OC)nc2[nH]cc(C(F)(F)F)c12` [Example 62, N^6-(2-methoxy-4-(4-methylpiperazin-1-yl)phenyl)-N^4-methyl-3-(trifluoromethyl)-1H-pyrrolo[2,3-b]pyridine-4,6-diamine], for which the “inhibition of the wing vein developmental abnormality” value was found to be 47.7%.
Still for that read-out and setting: as for `CNc1cc(Nc2ccc(C(=O)N3CCN(C)CC3)cc2OC)nc2[nH]cc(C(F)(F)F)c12` [Example 63, (3-methoxy-4-((4-(methylamino)-3-(trifluoromethyl)-1H-pyrrolo[2,3-b]pyridin-6-yl)amino)phenyl) (4-methylpiperazin-1-yl)methanone], the figure is 43.8%.
On the same count and under the same terms, as for `CNc1cc(Nc2ccc(C(=O)N3CCOCC3)cc2OC)nc2[nH]cc(C(F)(F)F)c12` [Example 58, (3-methoxy-4-((4-(methylamino)-3-(trifluoromethyl)-1H-pyrrolo[2,3-b]pyridin-6-yl)amino)phenyl) (morpholino)methanone], the figure is 47.9%.

A further experiment concerns the target T1, DYRK1A (Homo sapiens (Human), UniProt Q13627). As to the kind of experiment: DYRK1A kinase binding assay using LanthaScreen Eu.
Settings: not given
Broadly, the IC50 is the concentration that gives 50% inhibition. Molecule `COCCN(C)c1cc(Nc2ccc(C(=O)N3CCOCC3)cc2OC)nc2[nH]cc(C(F)(F)F)c12` [Example 87] showed an IC50 of 10 to 100 nM.
The molecule `COCCNc1cc(Nc2ccc(C(=O)N3CCOCC3)cc2OC)nc2[nH]cc(C(F)(F)F)c12` [Example 64, (3-methoxy-4-((4-((2-methoxyethyl)amino)-3-(trifluoromethyl)-1H-pyrrolo[2,3-b]pyridine-6yl)amino)phenyl) (morpholino)methanone] registered an IC50 of 10 to 100 nM.
The molecule `CCNc1cc(Nc2ccc(C(=O)N3CCC(N4CCN(C)CC4)CC3)cc2OC)nc2[nH]cc(C(F)(F)F)c12` [Example 70] came in with an IC50 of 10 to 100 nM.
`COCCNc1cc(Nc2ccc(C(=O)N3CCN(C)CC3)cc2OC)nc2[nH]cc(C(F)(F)F)c12` [Example 66, (3-methoxy-4-((4-((2-methoxyethyl)amino)-3-(trifluoromethyl)-1H-pyrrolo[2,3-b]pyridin-6-yl)amino)phenyl) (4-methylpiperazin-1-yl)-methanone] returned an IC50 of 10 to 100 nM.
Still for that read-out and setting: as for `COCCN(C)c1cc(Nc2ccc(C(=O)N3CCC(N4CCOCC4)CC3)cc2OC)nc2[nH]cc(C(F)(F)F)c12` [Example 88], the figure is 10 to 100 nM; as for `CCNc1cc(Nc2cc(F)c(C(=O)NC3CCN(C(C)C)CC3)cc2OC)nc2[nH]cc(C(F)(F)F)c12` [Example 74], 10 to 100 nM.
Consider `COc1cc(C(=O)N2CCC(N3CCOCC3)CC2)ccc1Nc1cc(N[C@@H](CO)C(C)C)c2c(C(F)(F)F)c[nH]c2n1` [Example 91], for which the IC50 lay in the range of 10 to 100 nM.
Same read-out and setting: next, `COc1cc(C(=O)N2CCOCC2)ccc1Nc1cc(NC2CC2)c2c(C(F)(F)F)c[nH]c2n1` [Example 95, (4-((4-(cyclopropylamino)-3-(trifluoromethyl)-1H-pyrrolo[2,3-b]pyridin-6-yl)amino)-3-methoxyphenyl) (morpholino) methanone]: 10 to 100 nM.
Still for that read-out and setting: next, `COc1cc(C(=O)N2CCC(N3CCOCC3)CC2)ccc1Nc1cc(NC(C)C)c2c(C(F)(F)F)c[nH]c2n1` [Example 90, (4-(4-(isopropylamino)-3-(trifluoromethyl)-1H-pyrrolo[2,3-b]pyridin-6-ylamino)-3-methoxyphenyl) (4-morpholinopiperidin-1-yl)methanone]: 10 to 100 nM; `COCCNc1cc(Nc2cc(F)c(C(=O)NC3CCN(C)CC3)cc2OC)nc2[nH]cc(C(F)(F)F)c12` [Example 73, 2-fluoro-5-methoxy-4-((4-((2-methoxyethyl)amino)-3-(trifluoromethyl)-1H-pyrrolo[2,3-b]pyridin-6-yl)amino) (1-methylpiperidin-4-yl)benzamide]: 10 to 100 nM.

For a further experiment, the target named is T1, DYRK1A. As to the kind of experiment: DYRK1A kinase inhibition, 33P-ATP filter-binding method. As to conditions: IC50 grade; head prints μM, key nM. It is filed as biochemical. The protocol: Particularly, a substrate was added to a basic reaction buffer (20 mM Hepes (pH 7.5), 10 mM MgCl2, 1 mM EGTA, 0.02% Brij35, 0.02 mg/ml BSA, 0.1 mM Na3VO4, 2 mM DTT, 1% DMSO), to which cofactors necessary for the reaction were added. Then, DYRK1A kinase was added thereto, followed by mixing well. Each compound of Examples was added thereto by using acoustic technology (Echo550; nanoliter range). The mixture was left at room temperature for 20 minutes and then ^33P-ATP (specific activity 10 mCi/ml) was added to initiate the reaction. After reacting at room temperature for 2 hours, spotting was performed on P81 exchange paper. Upon completion of the reaction, kinase activity was detected using a filter-binding method.
Molecule `CNc1cc(Nc2ccc(C(=O)N3CCO[C@@H](C)C3)cc2OC)nc2[nH]cc(C#N)c12` [Example 23, (S)-6-((2-methoxy-4-(2-methylmorpholine-4-carbonyl)phenyl)amino)-4-(methylamino)-1H-pyrrolo[2,3-b]pyridine-3-carbonitrile] came in with an IC50 greater than 0.1 µM.
On to `COCCNc1cc(Nc2cc(OC)c(OC)c(OC)c2)nc2[nH]cc(C#N)c12` [Example 5, 4-((2-methoxyethyl)amino)-6-((3,4,5-trimethoxyphenyl)amino)-1H-pyrrolo[2,3-b]pyridine-3-carbonitrile], for which the IC50 is 0.01 to 0.1 µM.
Same read-out and setting: next, `CCNc1cc(Nc2ccc(C(=O)N3CCOCC3)cc2OC)nc2[nH]cc(C(F)(F)F)c12` [Example 56, (4-((4-(ethylamino)-3-(trifluoromethyl)-1H-pyrrolo[2,3-b]pyridin-6-yl)amino)-3-methoxyphenyl) (morpholino)methanone]: less than 0.01 µM; `CCCNc1cc(Nc2ccc(C(=O)N3CCOCC3)cc2OC)nc2[nH]cc(C#N)c12` [Example 10, 6-((2-methoxy-4-(morpholine-4-carbonyl)phenyl)amino)-4-(propylamino)-1H-pyrrolo[2,3-b]pyridine-3-carbonitrile]: less than 0.01 µM.
Same read-out and setting: as for `CCNc1cc(Nc2ccc(C(=O)N3CCOCC3)cc2OC)nc2[nH]cc(C#N)c12` [Example 2, 4-(ethylamino)-6-((2-methoxy-4-(morpholine-4-carbonyl)phenyl)amino)-1H-pyrrolo[2,3-b]pyridine-3-carbonitrile], the figure is less than 0.01 µM; as for `COCCNc1cc(Nc2ccc(C(=O)N3CCOCC3)cc2OC)nc2[nH]cc(C#N)c12` [Example 4, 6-((2-methoxy-4-(morpholine-4-carbonyl)phenyl)amino)-4-((2-methoxyethyl)amino)-1H-pyrrolo[2,3-b]pyridine-3-carbonitrile], greater than 0.1 µM; as for `CCNc1cc(Nc2cc(OC)c(OC)c(OC)c2)nc2[nH]cc(C(F)(F)F)c12` [Example 53, N^4-ethyl-3-(trifluoromethyl)-N^6-(3,4,5-trimethoxyphenyl)-1H-pyrrolo[2,3-b]pyridine-4,6-diamine], 0.01 to 0.1 µM.
Still for that read-out and setting: as for `CNc1cc(Nc2cc(F)c(C(=O)N3CCN(C)CC3)cc2OC)nc2[nH]cc(C(F)(F)F)c12` [Example 60, (2-fluoro-5-methoxy-4-((4-(methylamino)-3-(trifluoromethyl)-1H-pyrrolo[2,3-b]pyridin-6-yl)amino)phenyl) (4-methylpiperazin-1-yl)methanone], the figure is 0.01 to 0.1 µM; as for `CNc1cc(Nc2ccc(C(=O)N3CCC(N4CCOCC4)CC3)cc2OC)nc2[nH]cc(C(F)(F)F)c12` [Example 59, (3-methoxy-4-((4-(methylamino)-3-(trifluoromethyl)-1H-pyrrolo[2,3-b]pyridin-6-yl)amino)phenyl) (4-morpholinopiperidin-1-yl)methanone], less than 0.01 µM.
Molecule `CNc1cc(Nc2ccc(C(=O)N3CCN(C)CC3)cc2OC)nc2[nH]cc(C(F)(F)F)c12` [Example 63, (3-methoxy-4-((4-(methylamino)-3-(trifluoromethyl)-1H-pyrrolo[2,3-b]pyridin-6-yl)amino)phenyl) (4-methylpiperazin-1-yl)methanone] registered an IC50 of less than 0.01 µM.
`CNc1cc(Nc2ccc(C(=O)N3CCC(N4CCN(C)CC4)CC3)cc2OC)nc2[nH]cc(C(F)(F)F)c12` [Example 61, (3-methoxy-4-((4-(methylamino)-3-(trifluoromethyl)-1H-pyrrolo[2,3-b]pyridin-6-yl)amino)phenyl) (4-(4-methylpiperazin-1-yl)piperidin-1-yl)methanone] showed an IC50 of less than 0.01 µM.
The same measure, in the same setting: as for `CCNc1cc(Nc2ccc(C(=O)N3CCO[C@@H](C)C3)cc2OC)nc2[nH]cc(C#N)c12` [Example 27, (S)-4-(ethylamino)-6-((2-methoxy-4-(2-methylmorpholine-4-carbonyl)phenyl)amino)-1H-W pyrrolo[2,3-b]pyridine-3-carbonitrile], the figure is greater than 0.1 µM; as for `CNc1cc(Nc2ccc(C(=O)N3CCOCC3)cc2OC)nc2[nH]cc(C#N)c12` [Example 1, 6-((2-methoxy-4-(morpholine-4-carbonyl)phenyl)amino)-4-(methylamino)-1H-pyrrolo[2,3-b]pyridine-3-carbonitrile], greater than 0.1 µM; as for `COCCNc1cc(Nc2ccc(C(=O)N3CCC(N4CCOCC4)CC3)cc2OC)nc2[nH]cc(C(F)(F)F)c12` [Example 65, (3-methoxy-4-((4-((2-methoxyethyl)amino)-3-(trifluoromethyl)-1H-pyrrolo[2,3-b]pyridin-6-yl)amino)phenyl) (4-morpholinopiperidin-1-yl)methanone], less than 0.01 µM.
With `COCCNc1cc(Nc2ccc(C(=O)N3CCC(N4CCN(C)CC4)CC3)cc2OC)nc2[nH]cc(C(F)(F)F)c12` [Example 67], the IC50 was less than 0.01 µM.
